Measured values as given in article PMC5218480 (PLoS ONE, 2017).

Tested on: MV-4-11 cells
Experiment: Gene expression microarray analysis (Affymetrix PrimeView) and GSEA
Type: cell-based, human
Parameters: RFU PODN (11730768_x_at) / Fold change /veh PODN (11730768_x_at) / RFU LINC00158 (11744669_a_at) / Fold change /veh LINC00158 (11744669_a_at) / RFU DUSP10 (11751237_a_at) / Fold change /veh DUSP10 (11751237_a_at) / RFU ID3 (11757404_x_at) / Fold change /veh ID3 (11757404_x_at) / RFU PLEKHG5 (11737974_s_at) / Fold change /veh PLEKHG5 (11737974_s_at) / RFU LRRC4B (11730491_at) / Fold change /veh LRRC4B (11730491_at) / RFU GIMAP4 (11747438_a_at) / Fold change /veh GIMAP4 (11747438_a_at) / RFU KRT8 (11758183_x_at) / Fold change /veh KRT8 (11758183_x_at) / RFU CNN1 (11734310_a_at) / Fold change /veh CNN1 (11734310_a_at) / RFU VPS37D (11726825_at) / Fold change /veh VPS37D (11726825_at) / RFU C10orf10 (11716522_x_at) / Fold change /veh C10orf10 (11716522_x_at) / RFU KIR2DL2 /// KIR2DL4 /// KIR2DL5A /// KIR2DL5B /// KIR2DS1 /// KIR2DS2 /// KIR2DS3 /// KIR2DS4 /// KIR3DL3 /// KIR3DL3 /// KIR3DS1 (11738374_at) / Fold change /veh KIR2DL2 /// KIR2DL4 /// KIR2DL5A /// KIR2DL5B /// KIR2DS1 /// KIR2DS2 /// KIR2DS3 /// KIR2DS4 /// KIR3DL3 /// KIR3DL3 /// KIR3DS1 (11738374_at) / RFU C1QL1 (11718748_at) / Fold change /veh C1QL1 (11718748_at) / RFU TMPRSS4 (11747572_a_at) / Fold change /veh TMPRSS4 (11747572_a_at) / RFU HAMP (11756126_x_at) / Fold change /veh HAMP (11756126_x_at) / RFU RNFT2 (11725882_a_at) / Fold change /veh RNFT2 (11725882_a_at) / RFU NR4A2 (11747474_a_at) / Fold change /veh NR4A2 (11747474_a_at) / RFU ABCC12 (11746883_a_at) / Fold change /veh ABCC12 (11746883_a_at) / RFU TMEM136 (11760407_x_at) / Fold change /veh TMEM136 (11760407_x_at) / RFU CLDN22 /// WWC2 (11732394_at) / Fold change /veh CLDN22 /// WWC2 (11732394_at) / RFU HLA-DPB1 (11760878_x_at) / Fold change /veh HLA-DPB1 (11760878_x_at) / RFU SPINT1 (11716480_a_at) / Fold change /veh SPINT1 (11716480_a_at) / RFU GAP43 (11754022_s_at) / Fold change /veh GAP43 (11754022_s_at) / RFU A4GNT (11735810_at) / Fold change /veh A4GNT (11735810_at) / RFU PRB3 (11715151_x_at) / Fold change /veh PRB3 (11715151_x_at) / RFU TUBB4B (11761932_at) / Fold change /veh TUBB4B (11761932_at) / RFU CAPN14 (11732068_a_at) / Fold change /veh CAPN14 (11732068_a_at) / RFU TMCC2 (11721928_a_at) / Fold change /veh TMCC2 (11721928_a_at) / RFU IRGQ (11745062_a_at) / Fold change /veh IRGQ (11745062_a_at) / RFU FAM174B (11720279_a_at) / Fold change /veh FAM174B (11720279_a_at) / RFU TMPRSS4 (11748680_a_at) / Fold change /veh TMPRSS4 (11748680_a_at) / RFU FAM212B (11763350_a_at) / Fold change /veh FAM212B (11763350_a_at) / RFU PLEKHG5 (11743358_a_at) / Fold change /veh PLEKHG5 (11743358_a_at) / RFU ZSCAN30 (11745921_a_at) / Fold change /veh ZSCAN30 (11745921_a_at) / RFU CMKLR1 (11741424_a_at) / Fold change /veh CMKLR1 (11741424_a_at) / RFU LOC101060620 /// MAPK8IP1 (11723275_at) / Fold change /veh LOC101060620 /// MAPK8IP1 (11723275_at) / RFU SPTSSB (11747773_x_at) / Fold change /veh SPTSSB (11747773_x_at) / RFU PRSS12 (11739890_at) / Fold change /veh PRSS12 (11739890_at) / RFU BIN1 (11741810_x_at) / Fold change /veh BIN1 (11741810_x_at) / RFU WNT11 (11732464_a_at) / Fold change /veh WNT11 (11732464_a_at) / RFU C10orf10 (11716521_a_at) / Fold change /veh C10orf10 (11716521_a_at) / RFU C5orf56 (11738089_at) / Fold change /veh C5orf56 (11738089_at) / RFU CYB561 (11721691_x_at) / Fold change /veh CYB561 (11721691_x_at) / RFU ANKRD19P (11752326_a_at) / Fold change /veh ANKRD19P (11752326_a_at) / RFU OR2T12 /// OR2T33 /// OR2T8 (11738714_s_at) / Fold change /veh OR2T12 /// OR2T33 /// OR2T8 (11738714_s_at) / RFU VCAN (11748164_a_at) / Fold change /veh VCAN (11748164_a_at) / RFU JSRP1 (11732532_at) / Fold change /veh JSRP1 (11732532_at) / RFU KRTAP10-11 (11738290_x_at) / Fold change /veh KRTAP10-11 (11738290_x_at) / RFU MYO3A (11730013_a_at) / Fold change /veh MYO3A (11730013_a_at) / RFU EBF3 (11725865_a_at) / Fold change /veh EBF3 (11725865_a_at) / RFU CAMK2N1 (11719241_x_at) / Fold change /veh CAMK2N1 (11719241_x_at) / RFU C5orf56 (11738088_a_at) / Fold change /veh C5orf56 (11738088_a_at) / RFU OLFML3 (11715873_a_at) / Fold change /veh OLFML3 (11715873_a_at) / RFU LOC100653217 /// NTM (11731650_a_at) / Fold change /veh LOC100653217 /// NTM (11731650_a_at) / RFU MAPK11 (11762145_a_at) / Fold change /veh MAPK11 (11762145_a_at) / RFU FIZ1 (11724087_x_at) / Fold change /veh FIZ1 (11724087_x_at) / RFU OASL (11726364_x_at) / Fold change /veh OASL (11726364_x_at) / RFU SOX15 (11748057_x_at) / Fold change /veh SOX15 (11748057_x_at) / RFU CD79A (11719716_a_at) / Fold change /veh CD79A (11719716_a_at) / RFU HIST1H1D (11736915_at) / Fold change /veh HIST1H1D (11736915_at) / RFU CASKIN2 (11723855_a_at) / Fold change /veh CASKIN2 (11723855_a_at) / RFU LOC730098 (11760151_x_at) / Fold change /veh LOC730098 (11760151_x_at) / RFU OR4N2 (11742367_at) / Fold change /veh OR4N2 (11742367_at) / RFU PRRT2 (11749266_a_at) / Fold change /veh PRRT2 (11749266_a_at) / RFU SNX32 (11753110_a_at) / Fold change /veh SNX32 (11753110_a_at) / RFU CDHR5 (11726645_a_at) / Fold change /veh CDHR5 (11726645_a_at) / RFU RCAN1 (11760418_a_at) / Fold change /veh RCAN1 (11760418_a_at) / RFU FAM167A (11723789_a_at) / Fold change /veh FAM167A (11723789_a_at) / RFU FAM26E (11764081_at) / Fold change /veh FAM26E (11764081_at) / RFU ISYNA1 (11749810_s_at) / Fold change /veh ISYNA1 (11749810_s_at) / RFU ACY1 (11761880_at) / Fold change /veh ACY1 (11761880_at) / RFU 11764098_at / Fold change /veh 11764098_at / RFU SAMD14 (11745864_x_at) / Fold change /veh SAMD14 (11745864_x_at) / RFU NPB (11741838_a_at) / Fold change /veh NPB (11741838_a_at) / RFU TMPRSS6 (11731388_a_at) / Fold change /veh TMPRSS6 (11731388_a_at) / RFU KRTAP10-2 (11738614_at) / Fold change /veh KRTAP10-2 (11738614_at) / RFU ARHGAP8 /// PRR5-ARHGAP8 (11727945_x_at) / Fold change /veh ARHGAP8 /// PRR5-ARHGAP8 (11727945_x_at) / RFU KRTAP5-7 /// NADSYN1 (11734609_at) / Fold change /veh KRTAP5-7 /// NADSYN1 (11734609_at) / RFU RASL12 (11751679_a_at) / Fold change /veh RASL12 (11751679_a_at) / RFU CDKN2B (11736163_a_at) / Fold change /veh CDKN2B (11736163_a_at) / RFU PRF1 (11729649_at) / Fold change /veh PRF1 (11729649_at) / RFU, ZNF638 /// ZNF638-IT1 / Fold change vs veh, ZNF638 /// ZNF638-IT1 / RFU, PANK3 / Fold change vs veh, PANK3 / RFU, SH3YL1 / Fold change vs veh, SH3YL1 / RFU, ZEB2 / Fold change vs veh, ZEB2 / RFU, NRIP1 / Fold change vs veh, NRIP1 / RFU, PTTG1IP / Fold change vs veh, PTTG1IP / RFU, CAPN2 / Fold change vs veh, CAPN2 / RFU, MED14 / Fold change vs veh, MED14 / RFU, SNORA58 / Fold change vs veh, SNORA58 / RFU, C1orf63 / Fold change vs veh, C1orf63 / RFU, LRRFIP1 / Fold change vs veh, LRRFIP1 / RFU, NDUFAF7 / Fold change vs veh, NDUFAF7 / RFU, SLC12A2 / Fold change vs veh, SLC12A2 / RFU, IBTK / Fold change vs veh, IBTK / RFU, ESF1 / Fold change vs veh, ESF1 / Fold change vs veh, TMEM50B / RFU, TAOK1 / Fold change vs veh, TAOK1 / RFU, ACBD3 / Fold change vs veh, ACBD3 / RFU, TMA16 / Fold change vs veh, TMA16 / RFU, RWDD3 / Fold change vs veh, RWDD3 / RFU, BCAT1 / Fold change vs veh, BCAT1 / RFU, EDEM3 / Fold change vs veh, EDEM3 / RFU, TMEM33 / Fold change vs veh, TMEM33 / RFU, WDR75 / Fold change vs veh, WDR75 / RFU, AHCTF1 / Fold change vs veh, AHCTF1 / RFU, TFRC / Fold change vs veh, TFRC / RFU, ZDHHC17 / Fold change vs veh, ZDHHC17 / RFU, NOM1 / Fold change vs veh, NOM1 / RFU, ARL8B / Fold change vs veh, ARL8B / RFU, ZBTB11 / Fold change vs veh, ZBTB11 / RFU, TAMM41 / Fold change vs veh, TAMM41 / RFU, KIAA1704 /// LOC100996395 / Fold change vs veh, KIAA1704 /// LOC100996395 / RFU, ING1 / Fold change vs veh, ING1 / RFU, TRMT61B / Fold change vs veh, TRMT61B / RFU, FUBP3 / Fold change vs veh, FUBP3 / RFU, TP53 / Fold change vs veh, TP53 / RFU, TNKS2 / Fold change vs veh, TNKS2 / RFU, ZFP14 / Fold change vs veh, ZFP14 / RFU, ACTR2 / Fold change vs veh, ACTR2 / RFU, PPP3R1 / Fold change vs veh, PPP3R1 / RFU, PIK3R1 / Fold change vs veh, PIK3R1 / RFU, HNRNPA1 / Fold change vs veh, HNRNPA1 / RFU, RNF170 / Fold change vs veh, RNF170 / RFU, ZNF28 / Fold change vs veh, ZNF28 / RFU, RNGTT / Fold change vs veh, RNGTT / RFU, OGT / Fold change vs veh, OGT / RFU, BRD1 / Fold change vs veh, BRD1 / RFU, MARS / Fold change vs veh, MARS / RFU, ZNF655 / Fold change vs veh, ZNF655 / RFU, FAHD1 / Fold change vs veh, FAHD1 / RFU, BDP1 / Fold change vs veh, BDP1 / RFU, LRRCC1 / Fold change vs veh, LRRCC1 / RFU, ARID1A / Fold change vs veh, ARID1A / RFU, ZNF146 / Fold change vs veh, ZNF146 / RFU, ZNF330 / Fold change vs veh, ZNF330 / RFU, GPN3 / Fold change vs veh, GPN3 / RFU, C9orf123 / Fold change vs veh, C9orf123 / RFU, N4BP2L2 / Fold change vs veh, N4BP2L2 / RFU, ARFIP1 / Fold change vs veh, ARFIP1 / RFU, FAM179B / Fold change vs veh, FAM179B / RFU, BCL10 / Fold change vs veh, BCL10 / RFU, UHRF1BP1L / Fold change vs veh, UHRF1BP1L / RFU, BET1 / Fold change vs veh, BET1 / RFU, CNOT2 / Fold change vs veh, CNOT2 / RFU, ZNF268 / Fold change vs veh, ZNF268 / Fold change vs veh, ZNF507 / RFU, DGCR2 / Fold change vs veh, DGCR2 / RFU, WDSUB1 / Fold change vs veh, WDSUB1 / Fold change vs veh, HSP90B1 /// MIR3652 / RFU, ADSS / Fold change vs veh, ADSS / RFU, GK / Fold change vs veh, GK / RFU, ZNF148 / Fold change vs veh, ZNF148 / RFU, TAF9 / Fold change vs veh, TAF9 / RFU, SLC1A5 / Fold change vs veh, SLC1A5 / RFU, SLMO2 / Fold change vs veh, SLMO2 / RFU, ABCC4 / Fold change vs veh, ABCC4 / RFU, LOC101060439 /// RAP1B / Fold change vs veh, LOC101060439 /// RAP1B / RFU, RFX7 / Fold change vs veh, RFX7 / RFU, GTPBP10 / Fold change vs veh, GTPBP10 / RFU, CNEP1R1 / Fold change vs veh, CNEP1R1 / RFU, BIVM-ERCC5 /// ERCC5 / Fold change vs veh, BIVM-ERCC5 /// ERCC5 / RFU, ILF3 / Fold change vs veh, ILF3 / RFU 11762660_at / Fold change /veh 11762660_at / RFU VCAN (11757783_s_at) / Fold change /veh VCAN (11757783_s_at) / RFU DDX43 (11728927_at) / Fold change /veh DDX43 (11728927_at) / RFU KRT8 (11758188_x_at) / Fold change /veh KRT8 (11758188_x_at) / RFU NKD1 (11759106_at) / Fold change /veh NKD1 (11759106_at) / RFU SRD5A1 (11742802_a_at) / Fold change /veh SRD5A1 (11742802_a_at) / RFU TPSAB1 /// TPSB2 (11721975_s_at) / Fold change /veh TPSAB1 /// TPSB2 (11721975_s_at) / RFU GSTM3 (11746129_a_at) / Fold change /veh GSTM3 (11746129_a_at) / RFU IL23R (11737362_x_at) / Fold change /veh IL23R (11737362_x_at) / RFU TMEM51 (11727254_a_at) / Fold change /veh TMEM51 (11727254_a_at) / RFU PIWIL2 (11732686_x_at) / Fold change /veh PIWIL2 (11732686_x_at) / RFU ORM1 (11744905_x_at) / Fold change /veh ORM1 (11744905_x_at) / RFU CCDC152 (11743942_at) / Fold change /veh CCDC152 (11743942_at) / RFU ECM1 (11717891_a_at) / Fold change /veh ECM1 (11717891_a_at) / RFU IL23R (11748794_a_at) / Fold change /veh IL23R (11748794_a_at) / RFU TNFAIP8L3 (11732012_x_at) / Fold change /veh TNFAIP8L3 (11732012_x_at) / RFU MBOAT4 (11741988_at) / Fold change /veh MBOAT4 (11741988_at) / RFU 11764193_at / Fold change /veh 11764193_at / RFU TMEM53 (11763286_at) / Fold change /veh TMEM53 (11763286_at) / RFU MAGEB2 (11727129_at) / Fold change /veh MAGEB2 (11727129_at) / RFU TMEM200A (11744735_a_at) / Fold change /veh TMEM200A (11744735_a_at) / RFU CCDC152 (11751479_a_at) / Fold change /veh CCDC152 (11751479_a_at) / RFU FAM211A (11726209_a_at) / Fold change /veh FAM211A (11726209_a_at) / RFU RGS16 (11746705_a_at) / Fold change /veh RGS16 (11746705_a_at) / RFU VCAN (11755009_s_at) / Fold change /veh VCAN (11755009_s_at) / RFU RHOB (11743442_s_at) / Fold change /veh RHOB (11743442_s_at) / RFU RGS16 (11720943_a_at) / Fold change /veh RGS16 (11720943_a_at) / RFU RGS16 (11720944_at) / Fold change /veh RGS16 (11720944_at) / RFU, VPS4B / Fold change vs veh, VPS4B / RFU, CREB1 / Fold change vs veh, CREB1 / RFU, DNAJC13 / Fold change vs veh, DNAJC13 / RFU, GNAQ / Fold change vs veh, GNAQ / RFU, CDK5R1 / Fold change vs veh, CDK5R1 / RFU, ZRANB3 / Fold change vs veh, ZRANB3 / RFU, CUL4A / Fold change vs veh, CUL4A / RFU, CCNY / Fold change vs veh, CCNY / RFU, UFL1 / Fold change vs veh, UFL1 / RFU, COG3 / Fold change vs veh, COG3 / RFU, DIAPH2 / Fold change vs veh, DIAPH2 / RFU, SKA2 / Fold change vs veh, SKA2 / RFU, AFF3 / Fold change vs veh, AFF3 / RFU, LMF1 / Fold change vs veh, LMF1 / RFU, IPO11 / Fold change vs veh, IPO11 / RFU, DFFB / Fold change vs veh, DFFB / RFU, FOXP1 / Fold change vs veh, FOXP1 / RFU, CARD8 / Fold change vs veh, CARD8 / RFU, STRN3 / Fold change vs veh, STRN3 / RFU, ADK / Fold change vs veh, ADK / RFU, RASSF2 / Fold change vs veh, RASSF2 / RFU, WIPF1 / Fold change vs veh, WIPF1 / RFU, LARP1B / Fold change vs veh, LARP1B / RFU, RASA1 / Fold change vs veh, RASA1 / RFU, RB1 / Fold change vs veh, RB1 / RFU, PPFIA1 / Fold change vs veh, PPFIA1 / RFU, MAT2A / Fold change vs veh, MAT2A / RFU, CCT5 / Fold change vs veh, CCT5 / RFU, WDR92 / Fold change vs veh, WDR92 / RFU, CUX1 / Fold change vs veh, CUX1 / RFU, TTC7A / Fold change vs veh, TTC7A / RFU, TMEM135 / Fold change vs veh, TMEM135 / RFU, DEPTOR / Fold change vs veh, DEPTOR / RFU, CPM / Fold change vs veh, CPM / RFU, DNAJB6 / Fold change vs veh, DNAJB6 / RFU, CACNA2D3 / Fold change vs veh, CACNA2D3 / RFU, DTX4 / Fold change vs veh, DTX4 / RFU, TFCP2 / Fold change vs veh, TFCP2 / RFU, GMCL1 /// GMCL1P1 / Fold change vs veh, GMCL1 /// GMCL1P1 / RFU, AEBP2 / Fold change vs veh, AEBP2 / RFU, SNHG1 /// SNORD22 /// SNORD25 /// SNORD26 /// SNORD27 /// SNORD28 /// SNORD29 /// SNORD31 / Fold change vs veh, SNHG1 /// SNORD22 /// SNORD25 /// SNORD26 /// SNORD27 /// SNORD28 /// SNORD29 /// SNORD31 / Fold change (Aza/veh), C12orf56 (ProbeSet 11735607_a_at) / Fold change (ACY-1035/veh), C12orf56 (ProbeSet 11735607_a_at) / Fold change (Aza/veh), FGFR1OP (ProbeSet 11751329_s_at) / Fold change (ACY-1035/veh), FGFR1OP (ProbeSet 11751329_s_at) / Fold change (Aza/veh), VPS36 (ProbeSet 11739960_a_at) / Fold change (ACY-1035/veh), VPS36 (ProbeSet 11739960_a_at) / RFU SYPL1 (11715823_x_at) / Fold change /veh SYPL1 (11715823_x_at) / RFU IGFBP7 (11715501_s_at) / Fold change /veh IGFBP7 (11715501_s_at) / RFU REEP3 (11722064_at) / Fold change /veh REEP3 (11722064_at) / RFU IGLL1 (11728026_x_at) / Fold change /veh IGLL1 (11728026_x_at): dose or concentration left out as unconfirmed
Conditions: ProbeSet 11731610_x_at; LIST B

For `Nc1ncn([C@@H]2O[C@H](CO)[C@@H](O)[C@H]2O)c(=O)n1` [azacitidine], the “RFU, KIAA1704 /// LOC100996395” value was 92.56 RFU.
